Reference: patent US6268391A, “Benzylidene-1,3-dihydro-indol-2-one derivatives a receptor tyrosine kinase inhibitors, particularly of Raf kinases” (Glaxo Wellcome Inc., priority 1997, dated 2001)
pIC50: −log10 of the molar value. Like-named read-outs stand apart in the source and are kept apart here.

What was measured:
[1] = system: MIA PACA (human pancreatic carcinoma cell line); assay: Cell Based Efficacy (MTT Assay), MIA PACA; conditions: MIA PaCa-2, 72 hours with compound, 50% inhibitory concentration
Description: (§1) The potency of compounds of the invention are tested for their ability to inhibit cell proliferation and cell viability. The metabolic conversion of 3-(4,5-dimethylthiazol-2-yl)-2,5-diphenyltetrazolium bromide (MTT, Sigma #M2128) to a reduced form is a commonly used measure of cellular viability. Following is the procedure:
(§2) Cells are maintained in 75 cm^2 tissue culture flasks until ready for use. The cells are grown and plated for the assay in Dulbecco's modified Eagle's media containing 10% fetal bovine serum. For example, the following cell lines can be used: a) human foreskin fibroblasts (HFF), b) HT29 (human colon carcinoma cell line), c) MDA-MB-468 (human breast carcinoma cell line), d) RKO (human colon adenocarcinoma cell line), e) SW620 (human colon carcinoma cell line), f) A549 (human lung carcinoma cell line), and g) MIA PACA (human pancreatic carcinoma cell line). Cells are maintained at 37° C. in 10% CO2, 90% humidified air. Cells are plated in 96-well tissue culture plates at the densities listed below. 100 μL of cell suspension is added to each well of the 96-well plate except the top row of the plate which contains no cells and serves as a reference for the spectrophotometer.
MIA PACA 3000 cells/well
(§3) Cells are incubated overnight in Dulbecco's modified Eagle's media containing 10% fetal bovine serum at 37° C. in 10% CO2, 90% humidified air prior to dosing. Cells are dosed in 10 sequential 3-fold dilutions starting at 30 uM depending upon the solubility of the compound. Compounds with solubilities of less than 30 uM are dosed at the highest soluble concentration. Stock solutions of compounds are made in 100% dimethyl sulfoxide (DMSO). Stock solutions are diluted in Dulbecco's modified Eagle's media containing 100 ug/mL gentamicin and 0.3 to 0.6% DMSO at the twice the highest concentration to be placed on the cells. If compounds have been dissolved in DMSO the final concentration of DMSO on the cells is kept below 0.3%. 3-fold serial dilutions are performed on each compound to prepare 10 concentrations of the compound for dosing. 100 μL of diluted compound is added to the 100 μL of media currently on the dish. For each concentration of compound, 2-4 replicate wells are prepared.
(§4) Cells are returned to incubator and allowed to proliferate in the presence of compound for 72 hours before addition of MTT. MTT is prepared in phosphate buffered saline (Irvine Scientific #9240) at a concentration of 2mg/mL. 50 μL per well of MTT solution is added to the 200 μL of media to yield a final concentration of 0.4 mg/mL and plates are returned to the incubator for 4 hours. After 4 hours incubation the media, compound and MTT mixture is aspirated from the plates and 100 μL of 100% DMSO is added to each well in addition to 25 μL of Sorenson's Buffer (0.1M glycine, 0.1M NaCl, pH 10.5). Quantitation of metabolic reduction of MTT in each plate is performed by reading optical density at 570 nm wavelength on a Molecular Devices UVmax microplate reader. Growth inhibition curves and 50% inhibitory concentrations are determined using Microsoft Excel.
(§5) Table 4 illustrates the inhibitory activity of compounds of the present invention against a representative kinase (raf) and the cytotoxicity of compounds of the present invention against a broad range of human tumor cell lines.

[2] = system: MDA-MB-468 (human breast carcinoma cell line); assay: Cell Based Efficacy (MTT Assay), MDA-MB-468; conditions: 72 hours with compound, 50% inhibitory concentration
Description: as §1
as §2, with “spectrophotometer. […]” for “spectrophotometer.”
as §3, §4, §5

Human cRaf1 = biological target: T1, Human cRaf1 (Homo sapiens, UniProt P04049); assay: Raf kinase assay (cRaf1 assay / Raf/MEK cascade assay); format: biochemical
T1 construct: poly-histidine (C); made in house
T1 sequence (P04049 whole entry): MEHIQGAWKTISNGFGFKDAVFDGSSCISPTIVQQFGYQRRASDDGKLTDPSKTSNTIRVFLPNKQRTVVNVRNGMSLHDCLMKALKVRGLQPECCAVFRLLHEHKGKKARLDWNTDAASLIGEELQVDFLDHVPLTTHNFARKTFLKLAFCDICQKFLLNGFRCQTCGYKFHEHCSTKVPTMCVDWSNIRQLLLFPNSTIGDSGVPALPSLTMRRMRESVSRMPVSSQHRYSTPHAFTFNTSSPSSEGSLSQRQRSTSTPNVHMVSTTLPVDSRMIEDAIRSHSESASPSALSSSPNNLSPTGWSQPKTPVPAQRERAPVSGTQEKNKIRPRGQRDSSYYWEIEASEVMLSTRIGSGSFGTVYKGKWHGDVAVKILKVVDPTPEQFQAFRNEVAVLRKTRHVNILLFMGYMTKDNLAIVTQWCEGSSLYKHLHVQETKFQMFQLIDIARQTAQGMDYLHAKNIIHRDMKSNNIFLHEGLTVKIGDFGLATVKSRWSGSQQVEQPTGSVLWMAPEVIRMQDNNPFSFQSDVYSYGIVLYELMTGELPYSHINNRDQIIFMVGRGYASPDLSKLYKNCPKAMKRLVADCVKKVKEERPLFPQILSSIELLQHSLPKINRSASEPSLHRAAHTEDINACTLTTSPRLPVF

PC-3 (prostate) = assay: Cell Based Efficacy (MTT Assay), PC-3; conditions: Homo sapiens; 72 hours with compound; 50% inhibitory concentration
Description: as §1, §2, §3, §4, §5

[3] = system: HT29 (human colon carcinoma cell line); assay: Cell Based Efficacy (MTT Assay), HT29; conditions: HT-29, 72 hours with compound, 50% inhibitory concentration
Description: as §1, §2, §3, §4, §5

[4] = system: SW620 (human colon carcinoma cell line); assay: Cell Based Efficacy (MTT Assay), SW620; conditions: SW-620, 72 hours with compound, 50% inhibitory concentration
Description: as §1
as §2, with “spectrophotometer. […]” for “spectrophotometer.”
as §3, §4, §5

[5] = Table 3, read-out: Raf Kinase activity

Compound | pIC50 (Human cRaf1; [5]) | also measured
N#Cc1ccc2c(c1)C(=Cc1cc(Br)c(O)c(Br)c1)C(=O)N2 [Example 1, 3-(3,5-Dibromo-4-hydroxy-benzylidine)-2-oxo-2,3-dihydro-1H-indole-5-carbonitrile] | > 6.00 | pIC50 [1]: 4.30 to 5.30; pIC50 [2]: 4.30 to 5.30; pIC50 (Human cRaf1; Table 4, read-out: Raf): > 6.30; pIC50 (PC-3 (prostate)): 4.30 to 5.30; pIC50 [3]: 4.30 to 5.30; pIC50 [4]: 4.30 to 5.30
Cn1nnc(-c2ccc3c(c2)C(=Cc2cc(Br)c(O)c(Br)c2)C(=O)N3)n1 [Example 143, 3-(3,5-Dibromo-4-hydroxy-benzylidene)-5-(2-methyl-2H-tetrazol-5-yl)-1,3-dihydro-indol-2-one] | > 6.00 | pIC50 [2]: 5.30 to 6.30; pIC50 (Human cRaf1; Table 4, read-out: Raf): > 6.30; pIC50 [3]: 5.30 to 6.30; pIC50 [4]: 5.30 to 6.30
O=C(CO)Nc1ccc2c(c1)C(=Cc1cc(Br)c(O)c(Br)c1)C(=O)N2 [Example 160, N-3-[(3,5-Dibromo-4-hydroxyphenyl)methylidene]-2-oxo-2,3-dihydro-1H-indol-5-yl-2-hydroxyacetamide] | > 6.00 | –
CN(C)c1ccc2c(c1)C(=Cc1cc(Br)c(O)c(Br)c1)C(=O)N2 [Example 163, 3-[(3,5-Dibromo-4-hydroxyphenyl)methylidene]-5-(dimethylamino)-1,3-dihydro-2H-indol-2-one] | > 6.00 | –
CCN(CC)C(=O)Oc1c(Br)cc(C=C2C(=O)Nc3ccc(S(N)(=O)=O)cc32)cc1Br [Example 164, 4-[5-(Aminosulfonyl)-2-oxo-1,2-dihydro-3H-indol-3-ylidene]methyl-2,6-dibromophenyl N,N-diethylcarbamate] | 5.00 to 6.00 | –
CCN(CC)C(=O)Oc1c(Br)cc(C=C2C(=O)Nc3ccc(C(=O)c4ccccc4)cc32)cc1Br [Example 167, 4-[(5-Benzoyl-2-oxo-1,2-dihydro-3H-indol-3-yildene)methyl]-2,6-dibromophenyl N,N-diethylcarbamate] | 4.00 to 5.00 | –
CN(C)CCNC(=O)c1ccc2c(c1)C(=Cc1cc(Br)c(O)c(Br)c1)C(=O)N2 [Example 168, 3-[(3,5-Dibromo-4-hydroxyphenyl)methylidene]-N-(2-(dimethylamino)ethyl]-2-oxo-5-indolinecarboxamide] | > 6.00 | –
O=C1Nc2ccc(-c3cc(C(F)(F)F)cc(C(F)(F)F)c3)cc2C1=Cc1cc(Br)c(O)c(Br)c1 [Example 169, 5-[3,5-bis(Trifluoromethyl)phenyl]-3-[(3,5-dibromo-4-hydroxyphenyl)methylidene]-1,3-dihydro-2H-indol-2-one] | > 6.00 | –
O=C1Nc2ccc(-c3ccc(Cl)cc3Cl)cc2C1=Cc1cc(Br)c(O)c(Br)c1 [Example 171, 3-[(3,5-Dibromo-4-hydroxyphenyl)methylidene]-5-(2,4-dichlorophenyl)-1,3-dihydro-2H-indol-2-one] | > 6.00 | –
O=C1Nc2ccc(C(=O)NCCO)cc2C1=Cc1cc(Br)c(O)c(Br)c1 [Example 172, 3-[(3,5-Dibromo-4-hydroxyphenyl)methylidene]-N-(2-hydroxyethyl)-2-oxo-5-indolinecarboxamide] | > 6.00 | –
CS(=O)(=O)c1ccc2c(c1)C(=Cc1cc(Br)c(O)c(Br)c1)C(=O)N2 [Example 174, 3-[(3,5-Dibromo-4-hydroxyphenyl)methylidene]-5-(methylsulfonyl)-1,3-dihydro-2H-indol-2-one] | > 6.00 | –
N#Cc1ccccc1-c1ccc2c(c1)C(=Cc1cc(Br)c(O)c(Br)c1)C(=O)N2 [Example 178, 2-3-[(3,5 Dibromo-4-hydroxyphenyl)methylidene]-2-oxo-2,3-dihydro-1H-indol-5-ylbenzonitrile] | > 6.00 | –
N#Cc1ccc2c(c1)NC(=O)C2=Cc1cc(Br)c(O)c(Br)c1 [Example 179, 3-[(3,5-Dibromo-4-hydroxyphenyl)methylidene]-2-oxo-6-indolinecarbonitrile] | > 6.00 | –
CN(C)CCCNc1nc(-c2ccc3c(c2)C(=Cc2cc(Br)c(O)c(Br)c2)C(=O)N3)cs1 [Example 180, 3-[(3,5-Dibromo-4-hydroxyphenyl)methylidene]-5-(2-[3-(dimethylamino)propyl]amino-1,3-thiazol-4-yl)-1,3-dihydro-2H-indol-2-one] | > 6.00 | –
O=C1Nc2ccc(C(=O)NCc3ccncc3)cc2C1=Cc1cc(Br)c(O)c(Br)c1 [Example 181, 3-[(3,5-dibromo-4-hydroxyphenyl)methylidene]-2-oxo-N-(4-pyridinylmethyl)-1,2-dihydro-3H-indole-5-carboxamide] | > 6.00 | –

Now from value to molecule, other results behind:

pIC50 (Human cRaf1; [5]) | Compound | also measured
> 6.00 | O=C1Nc2ccc3ncsc3c2C1=Cc1cc(Br)c(O)c(Br)c1 [Example 121, 8-(3,5-Dibromo-4-hydroxy-benzylidine)-6,8-dihydro-1-thia-3,6-diaza-as-indacen-7-one] | pIC50 [1]: 4.30 to 5.30; pIC50 [2]: 5.30 to 6.30; pIC50 (Human cRaf1; Table 4, read-out: Raf): > 6.30; pIC50 [3]: 5.30 to 6.30; pIC50 [4]: 5.30 to 6.30
> 6.00 | O=C1Nc2ccc(C(=O)NCCCc3ccccc3)cc2C1=Cc1cc(Br)c(O)c(Br)c1 [Example 161, 3-[(3,5-Dibromo-4-hydroxyphenyl)methylidene]-2-oxo-N-(3-phenylpropyl)-5-indolinecarboxamide] | –
> 6.00 | O=C1Nc2ccc(C(=O)NCc3ccccc3)cc2C1=Cc1cc(Br)c(O)c(Br)c1 [Example 162, N-Benzyl-3-[(3,5-dibromo-4-hydroxyphenyl)methylidene]-2-oxo-5-indolinecarboxamide] | –
> 6.00 | Cc1ccc2c3c(ccc2n1)NC(=O)C3=Cc1cc(Br)c(O)c(Br)c1 [Example 165, 1-[(3,5-Dibromo-4-hydroxyphenyl)methylidene]-7-methyl-1,3-dihydro-2H-pyrrolo[3,2-f]quinolin-2-one] | –
> 6.00 | Nc1ccc2c(c1)C(=Cc1cc(Br)c(O)c(Br)c1)C(=O)N2 [Example 166, 5-Amino-3-[(3,5-dibromo-4-hydroxyphenyl)methylidene]-1,3-dihydro-2H-indol-2-one] | –
> 6.00 | CN(C)c1nc(-c2ccc3c(c2)C(=Cc2cc(Br)c(O)c(Br)c2)C(=O)N3)cs1 [Example 173, 3-[(3,5-Dibromo-4-hydroxyphenyl)methylidene]-5-[2-(dimethylamino)-1,3-thiazol-4-yl]-1,3-dihydro-2H-indol-2-one] | –
> 6.00 | NS(=O)(=O)c1ccc(-c2ccc3c(c2)C(=Cc2cc(Br)c(O)c(Br)c2)C(=O)N3)cc1 [Example 175, 4-3-[(3,5-Dibromo-4-hydroxyphenyl)methylidene]-2-oxo 2,3-dihydro-1H-indol-5-ylbenzenesulfonamide] | –
> 6.00 | C=Cc1ccc2c(c1)NC(=O)C2=Cc1cc(Br)c(O)c(Br)c1 [Example 176, 3-[(3,5-Dibromo-4-hydroxyphenyl)methylidene]-6-vinyl-1,3-dihydro-2H-indol-2-one] | –
> 6.00 | COC(=O)c1sccc1-c1ccc2c(c1)C(=Cc1cc(Br)c(O)c(Br)c1)C(=O)N2 [Example 177, Methyl 3-3-[(3,5 dibromo-4-hydroxyphenyl)methylidene]-2-oxo-2,3-dihydro-1H-indol-5-yl-2-thiophenecarboxylate] | –
